Assay results from patent publication US20210386829A1, “COMPOSITIONS AND METHODS FOR MODULATING CGRP SIGNALING TO REGULATE INNATE LYMPHOID CELL INFLAMMATORY RESPONSES” (The Broad Institute, Inc., priority 2018, published 2021).
Several values for one entry are separate records, joined by “and”; a condition that tells them apart may be missing. Equal values may be shown once.

How the values were obtained:
lung ILC2s = assay: expression profiles (RNA-seq) of lung ILC2s cultured with CGRP, IL-33 or both; type: cell-based, mouse
Method: RNA-Seq. For population (bulk) RNA-seq, sorted ILCs were lysed with RLT Plus buffer and RNA was extracted using the RNeasy Plus Mini Kit (Qiagen). Full-length RNA-seq libraries were prepared as previously described (Singer, M. et al. A Distinct Gene Module for Dysfunction Uncoupled from Activation in Tumor-Infiltrating T Cells. Cell 166, 1500-1511 e1509, doi:10.1016/j.cell.2016.08.052 (2016). and paired-end sequenced (75 bp×2) with a 150 cycle Nextseq 500 high output V2 kit.
Culture of innate lymphoid cells. Sort-purified innate lymphoid cells (ILCs) were cultured under sterile conditions in complete medium in a humidified incubator at 37° C. and 10% CO2. ILCs were plated at a density of 3,000-5,000 ILCs per well in a 96 well round-bottom plate in cell culture medium with 20 ng/ml IL-7. Depending on the experiment, different combinations of 200 ng/ml IL-25, 200 ng/ml IL-33, 1 ug/ml NMU and 100 nM CGRP were added either at start or after overnight culture with 20 ng/ml IL-7. After 6 hours or 3 days, culture supernatant was removed and frozen at −20° C. and ILCs were lysed in Extraction Buffer (PicoPure RNA isolation Kit; Thermo Fisher Scientific), incubated at 42° C. for 30 min and frozen at −80° C.

[1] = system: IL-25+NMU-induced airway inflammation; assay: IL-25+NMU-induced airway inflammation, intranasal co-administration of CGRP; type: in vivo, mouse
Method: Cytokine-induced airway inflammation. Mice received nasally 500 ng IL-25, 500 ng IL-33, 20 ug NMU or 6.65 ug CGRP diluted in DPBS for three consecutive days. For nasal administration, mice were lightly anesthetized with Isoflurane (Cat #07-893-1389; Patterson Veterinary). For induction of inflammatory ILC2s, mice received intraperitoneally 500 ng IL-25 for three consecutive days. One day after the last treatment, mice were euthanized and perfused with 8 ml cold PBS via the right heart ventricle. After exposure of the trachea, a small incision was made at the top of the trachea and a curved gavage needle was inserted. Lungs were washed with 1.5 ml cold PBS via the needle and the retrieved bronchoalveolar lavage fluid was centrifuged at 1300 rpm for 5 min at 4 C. After centrifugation, the supernatant was frozen at −20° C. and the cell pellet was resuspended in 250 ul complete medium and stored on ice until flow cytometric analysis. The post-caval lung lobe was transferred into 10% buffered formalin and stored at room temperature until paraffin embedding for histological analysis. The other lung lobes were dissociated using the lung dissociation kit (Cat #130-095-927; Miltenyi Biotec) and automated tissue dissociator (gentleMACS; Miltenyi Biotec) as described above with the adjustment that after running program lung_02, the single cell suspension was centrifuged at 1300 rpm for 5 min at 4° C. and 1 ml of the supernatant was frozen at −20° C. Single-cell suspension was resuspended in complete cell culture medium and stored on ice until further processing.
For cell counts, lung cells were transferred into FACS tubes and stained with 7AAD. Precision Count Beads (Cat #424902; BioLegend) were added according to manufacturer's instructions. Cells and beads were acquired on a BD LSRFortessa (BD Biosciences) and cell numbers were calculated based on number of acquired live (7AAD−) cells and number of acquired beads.
For flow cytometric analysis, lung cells were transferred into a 96 well V-bottom plate and stained with surface antibodies for 20 min at 4° C. in the dark. Cells were washed twice with DPBS containing 2% fetal bovine serum and transferred into 1.2 ml tubes for analysis by flow cytometry. For intracellular cytokine staining, cells were incubated in complete cell culture medium with 50 ng/ml phorbol 12-myristate 13-acetate (Sigma-Aldrich), 1 uM ionomycin (Sigma-Aldrich) and GolgiStop (Cat #554724; BD Biosciences) in a humidified incubator at 37° C. and 10% CO2. After 5 hours, cells were transferred into 96 well V-bottom plate, stained with Fixable Viability Dye eFluor 506 (Cat #65-0866-14; Thermo Fisher) and surface antibodies for 20 min at 4° C. in the dark and washed twice with DPBS containing 2% fetal bovine serum. Then, cells were incubated with BD Cytofix/Cytoperm Buffer (Cat #51-2090KZ; BD Biosciences) for 20 min, followed by a wash with BD Perm/Wash Buffer (Cat #51-2091KZ; BD Biosciences). Subsequently, cells were incubated with antibodies targeting intracellular proteins diluted in BD Perm/Wash Buffer for 20 min and after two wash steps, transferred into 1.2 ml tubes for analysis by flow cytometry. For ki67 staining, cells were stained for surface antibodies as described above, fixed with a solution of Fixation/Permeabilization Concentrate (Cat #00-5123-43; Invitrogen) and Fixation/Perm Diluent (Cat #00-5223-56; Invitrogen) for 20 min, washed with Permeabilization Buffer (Cat #00-8333-56; Invitrogen). Then, cells were incubated with ki67 antibody diluted in Permeabilization Buffer for 20 min, washed and transferred into FACS tubes. Cells were analyzed on a BD LSRFortessa (BD Biosciences) flow cytometer with 5 lasers (355 nm, 405 nm, 488 nm, 561 nm and 640 nm). Data was analyzed using FlowJo v10.5.0 software and cell populations were gated as described previously (Wallrapp 2017).
RNA isolation and cDNA synthesis. […]

ILC2s = details: recent report (Sui et al., 2018); cited from earlier work

CGRP: neuropeptide calcitonin gene-related peptide (encoded by Calca), ligand of the Ramp1/Calcrl receptor; given at 100 nM in vitro, 6.65 ug nasally
differentially expressed genes of CGRP alone shared with CGRP+IL-33 treatment (lung ILC2s; CGRP alone vs CGRP+IL-33): 112 genes
genes associated with cell cycle progression (Mki67, Birc5, Kdm8) (lung ILC2s; CGRP treatment alone): down-regulated
number of differentially expressed genes (lung ILC2s; CGRP treatment alone (IL-7+CGRP vs IL-7)): 331 genes
Il13 and Arg1 expression (effector ILC2 genes) (lung ILC2s; IL-33+CGRP vs IL-33): significantly down-regulated
genes associated with negative regulation of effector T cell responses (Pdcd1, Havcr2, Lilrb4, Entpd1, Tnfrsf18, FoxP3, Nfil3, Nr3c1, Fgl2) (lung ILC2s; IL-33+CGRP vs IL-33): upregulated
number of differentially expressed genes up-regulated in the presence of CGRP (lung ILC2s; IL-33+CGRP vs IL-33, 3 days): 635 genes
number of differentially expressed genes (lung ILC2s; IL-33+CGRP vs IL-33, 3 days, P<0.05, fold change >1.5): > 900 genes and 946 genes
Ramp3 and Calca expression in ILC2s (lung ILC2s; with CGRP, confirmed by qPCR): upregulated
lung ILC frequencies and numbers ([1]; IL-25+CGRP vs IL-25, nasal, three consecutive days): no effect
IL-5 protein in lung tissue and BALF ([1]; IL-25+NMU+CGRP vs IL-25+NMU): non-significant trend towards reduced expression
IL-13 protein in lung tissue and bronchoalveolar lavage fluid ([1]; IL-25+NMU+CGRP vs IL-25+NMU): reduced
ILC proliferation (intracellular Ki67) ([1]; IL-25+NMU+CGRP vs IL-25+NMU): significantly decreased
eosinophil frequency and numbers in the BAL ([1]; IL-25+NMU+CGRP vs IL-25+NMU): towards decreased
lung ILC frequencies and numbers ([1]; IL-25+NMU+CGRP vs IL-25+NMU): strong reduction
type 2 cytokine mRNA in lung tissue ([1]; IL-25+NMU+CGRP vs IL-25+NMU): diminished expression
IL-5 and amphiregulin (Areg) production by ILC2s (ILC2s): enhanced
